Measured values as given in PMC6120666 (The EMBO Journal, 2018).

Key:
Assay in all cases: Drug affinity chromatography with c-ponatinib and LC-MS/MS (ponatinib interactome)
Assay type in all cases: binding
[1] = biological target: T1, proteins of U2OS cell lysate (Homo sapiens, UniProt P13073)
T1 construct: Proteins enriched by c-ponatinib from U2OS cell lysate; endogenous in cells; host or cells: U2OS cell lysate
Method: (§1) Drug affinity chromatography
(§2) U2OS cells were grown until approximately 80% confluent before being pelleted and washed with PBS. Cell pellets were subsequently lysed in buffer A (50 mM Tris pH 7.5, 0.8% v/v NP-40, 5% v/v glycerol, 1.5 mM MgCl2, 100 mM NaCl, 25 mM NaF, 1 mM Na3VO4, 1 mM PMSF, 1mM DTT, 10 μg/mL TLCK, 1 μg/ml Leupeptin, 1 μg/ml Aprotinin, 1 μg/ml soy bean trypsin) and lysates prepared […]
(§3) concentration was determined and lysates stored at -80 °C.
(§4) Briefly, 100 μl of bead slurry (50% in isopropanol) were used for each pulldown experiment. Beads were washed with DMSO (3 × 500 μl), and resuspended in DMSO (50 μl), to which the amine (0.025 μmol) and triethylamine (0.75 μl) were added. The beads were incubated at room temperature for 16 h, and depletion of free amine from the supernatant was determined by LC-MS analysis. Ethanolamine (2.5 μl) was then added to block any unreacted NHS sites, and the beads incubated for a further 16 h. Derivatized beads were then washed with DMSO (3 × 500 μl), buffer A (3 × 1 ml), and incubated with cell lysates (2 mg of protein per pulldown, at 6 […]
(§5) Beads and treated lysates were incubated for 2 h at 4 °C before washing with buffer A (5 ml), Buffer B (50 mM HEPES pH 7.5, 100 mM NaCl, 500 μM EDTA, 2.5 ml), and eluted with formic acid (100 mM, 250 μl). Samples were neutralized with triethylammoniumbicarbonate (TEAB, 1M, 62.5 μl) and stored at -20 °C until preparation for proteomic analysis.
(§6) Samples were reduced with DTT (10 mM final concentration) for 30 min at room temperature, alkylated with iodoacetamide (55 mM final concentration) for 30 min at room temperature, diluted to 300 μl with TEAB, and incubated with trypsin (6 μl, 0.2 mg/ml) overnight at 37 °C. The digests were desalted using SEPAC lite columns (Waters), eluted with 69 % v/v MeCN, 0.1 % v/v FA in H2O (1 ml) and dried in vacuo. Dried peptides were stored at -20 °C before resuspension in 2 % v/v MeCN, 1 % v/v FA in H2O (20 μl) for LC-MS/MS analysis.
(§7) LC-MS/MS data acquisition
(§8) Mass spectrometry data was acquired at the Discovery Proteomics Facility (University of Oxford).
(§9) Digested samples were analyzed by nano-UPLC–MS/MS using a Dionex Ultimate 3000 nano UPLC with EASY spray column (75 μm × 500 mm, 2 μm particle size, Thermo Fisher Scientific) with a 60 min gradient of 0.1 % (v/v) formic acid in 5 % (v/v) DMSO to 0.1 % (v/v) formic acid with 35 % (v/v) acetonitrile in 5 % (v/v) DMSO at a flow rate of approximately 250 nl min−1 (600 bar per 40 °C column temperature). Mass spectrometry data was acquired either with an Orbitrap Q Exactive (Survey scans acquired at a resolution of 70,000 @ 200m/z and the 15 most abundant precursors were selected for HCD fragmentation), or an Orbitrap Q Exactive High Field (HF) instrument (survey scans were […]

[2] = biological target: T2, proteins of U2OS cell lysate (Homo sapiens, UniProt P12270)
T2 construct: Proteins enriched by c-ponatinib from U2OS cell lysate; endogenous in cells; host or cells: U2OS cell lysate
T2 sequence (P12270 whole entry): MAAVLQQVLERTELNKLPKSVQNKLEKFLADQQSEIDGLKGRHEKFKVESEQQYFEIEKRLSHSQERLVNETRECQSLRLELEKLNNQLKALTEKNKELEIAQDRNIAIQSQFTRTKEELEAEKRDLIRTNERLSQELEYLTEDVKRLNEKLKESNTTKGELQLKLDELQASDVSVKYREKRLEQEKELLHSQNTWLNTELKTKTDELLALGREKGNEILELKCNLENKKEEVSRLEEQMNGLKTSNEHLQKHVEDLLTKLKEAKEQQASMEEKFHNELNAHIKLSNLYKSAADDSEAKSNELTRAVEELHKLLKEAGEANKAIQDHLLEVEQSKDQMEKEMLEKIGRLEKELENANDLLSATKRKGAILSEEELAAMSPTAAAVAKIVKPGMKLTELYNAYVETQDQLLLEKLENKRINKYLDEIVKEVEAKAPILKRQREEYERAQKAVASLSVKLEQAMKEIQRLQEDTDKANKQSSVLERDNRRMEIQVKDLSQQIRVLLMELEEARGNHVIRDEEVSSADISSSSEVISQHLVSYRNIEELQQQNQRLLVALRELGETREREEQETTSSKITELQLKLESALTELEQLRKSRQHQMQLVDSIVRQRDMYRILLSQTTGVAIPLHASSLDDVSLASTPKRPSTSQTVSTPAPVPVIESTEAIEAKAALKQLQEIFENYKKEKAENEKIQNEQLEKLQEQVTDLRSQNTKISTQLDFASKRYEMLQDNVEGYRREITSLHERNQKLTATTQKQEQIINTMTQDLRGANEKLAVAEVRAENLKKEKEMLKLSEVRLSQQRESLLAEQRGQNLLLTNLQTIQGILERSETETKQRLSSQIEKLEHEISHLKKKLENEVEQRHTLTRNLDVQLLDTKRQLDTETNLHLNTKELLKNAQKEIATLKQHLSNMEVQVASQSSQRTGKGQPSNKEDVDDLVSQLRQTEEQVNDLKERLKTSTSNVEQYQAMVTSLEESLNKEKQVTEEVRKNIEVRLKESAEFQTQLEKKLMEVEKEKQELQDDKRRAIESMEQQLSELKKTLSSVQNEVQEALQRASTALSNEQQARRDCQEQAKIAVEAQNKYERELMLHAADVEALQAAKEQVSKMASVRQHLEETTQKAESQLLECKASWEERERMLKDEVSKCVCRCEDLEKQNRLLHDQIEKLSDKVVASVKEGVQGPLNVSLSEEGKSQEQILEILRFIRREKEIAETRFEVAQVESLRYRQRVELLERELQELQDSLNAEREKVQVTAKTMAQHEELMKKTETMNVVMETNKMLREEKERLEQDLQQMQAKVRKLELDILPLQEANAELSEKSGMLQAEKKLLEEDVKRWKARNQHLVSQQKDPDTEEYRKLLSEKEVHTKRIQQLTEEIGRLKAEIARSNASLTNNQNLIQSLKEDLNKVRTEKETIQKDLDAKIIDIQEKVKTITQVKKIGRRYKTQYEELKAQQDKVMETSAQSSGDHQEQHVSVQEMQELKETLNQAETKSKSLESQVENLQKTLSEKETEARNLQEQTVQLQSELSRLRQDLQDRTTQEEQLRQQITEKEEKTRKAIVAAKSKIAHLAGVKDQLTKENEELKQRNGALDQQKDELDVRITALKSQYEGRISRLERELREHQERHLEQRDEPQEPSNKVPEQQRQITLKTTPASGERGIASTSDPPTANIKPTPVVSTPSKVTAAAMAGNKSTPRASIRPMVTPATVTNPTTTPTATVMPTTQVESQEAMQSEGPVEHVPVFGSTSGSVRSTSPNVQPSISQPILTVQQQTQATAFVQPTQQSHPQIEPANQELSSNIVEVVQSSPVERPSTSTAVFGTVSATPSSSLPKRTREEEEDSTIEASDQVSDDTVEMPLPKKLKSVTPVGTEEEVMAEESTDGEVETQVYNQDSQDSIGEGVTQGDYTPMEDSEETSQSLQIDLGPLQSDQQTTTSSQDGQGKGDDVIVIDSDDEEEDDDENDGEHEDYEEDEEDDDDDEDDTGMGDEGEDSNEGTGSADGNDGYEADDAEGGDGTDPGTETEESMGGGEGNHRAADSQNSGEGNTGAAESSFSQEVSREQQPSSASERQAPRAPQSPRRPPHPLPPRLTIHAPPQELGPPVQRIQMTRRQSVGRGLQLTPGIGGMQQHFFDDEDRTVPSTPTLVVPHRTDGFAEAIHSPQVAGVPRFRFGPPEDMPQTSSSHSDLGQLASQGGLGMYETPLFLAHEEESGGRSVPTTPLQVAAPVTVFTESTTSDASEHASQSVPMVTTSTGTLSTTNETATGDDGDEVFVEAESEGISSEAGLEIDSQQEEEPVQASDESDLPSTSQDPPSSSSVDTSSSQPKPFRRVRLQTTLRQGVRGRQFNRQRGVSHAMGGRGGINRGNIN
Method: as §1, §2, §3, §4, §5, §6, §7, §8, §9

[3] = biological target: T3, proteins of U2OS cell lysate (Homo sapiens, UniProt P52907)
T3 construct: Proteins enriched by c-ponatinib from U2OS cell lysate; endogenous in cells; host or cells: U2OS cell lysate
Method: as §1, §2, §3, §4, §5, §6, §7, §8, §9

[4] = biological target: T4, proteins of U2OS cell lysate (Homo sapiens, UniProt P35268)
T4 construct: Proteins enriched by c-ponatinib from U2OS cell lysate; endogenous in cells; host or cells: U2OS cell lysate
Method: as §1, §2, §3, §4, §5, §6, §7, §8, §9

[5] = biological target: T5, proteins of U2OS cell lysate (Homo sapiens, UniProt P53999)
T5 construct: Proteins enriched by c-ponatinib from U2OS cell lysate; endogenous in cells; host or cells: U2OS cell lysate
Method: as §1, §2, §3, §4, §5, §6, §7, §8, §9

[6] = biological target: T6, proteins of U2OS cell lysate (Homo sapiens, UniProt Q9BUF5)
T6 construct: Proteins enriched by c-ponatinib from U2OS cell lysate; endogenous in cells; host or cells: U2OS cell lysate
Method: as §1, §2, §3, §4, §5, §6, §7, §8, §9

[7] = biological target: T7, proteins of U2OS cell lysate (Homo sapiens, UniProt P60228)
T7 construct: Proteins enriched by c-ponatinib from U2OS cell lysate; endogenous in cells; host or cells: U2OS cell lysate
Method: as §1, §2, §3, §4, §5, §6, §7, §8, §9

[8] = biological target: T8, proteins of U2OS cell lysate (Homo sapiens, UniProt Q16643)
T8 construct: Proteins enriched by c-ponatinib from U2OS cell lysate; endogenous in cells; host or cells: U2OS cell lysate
T8 sequence (Q16643 whole entry): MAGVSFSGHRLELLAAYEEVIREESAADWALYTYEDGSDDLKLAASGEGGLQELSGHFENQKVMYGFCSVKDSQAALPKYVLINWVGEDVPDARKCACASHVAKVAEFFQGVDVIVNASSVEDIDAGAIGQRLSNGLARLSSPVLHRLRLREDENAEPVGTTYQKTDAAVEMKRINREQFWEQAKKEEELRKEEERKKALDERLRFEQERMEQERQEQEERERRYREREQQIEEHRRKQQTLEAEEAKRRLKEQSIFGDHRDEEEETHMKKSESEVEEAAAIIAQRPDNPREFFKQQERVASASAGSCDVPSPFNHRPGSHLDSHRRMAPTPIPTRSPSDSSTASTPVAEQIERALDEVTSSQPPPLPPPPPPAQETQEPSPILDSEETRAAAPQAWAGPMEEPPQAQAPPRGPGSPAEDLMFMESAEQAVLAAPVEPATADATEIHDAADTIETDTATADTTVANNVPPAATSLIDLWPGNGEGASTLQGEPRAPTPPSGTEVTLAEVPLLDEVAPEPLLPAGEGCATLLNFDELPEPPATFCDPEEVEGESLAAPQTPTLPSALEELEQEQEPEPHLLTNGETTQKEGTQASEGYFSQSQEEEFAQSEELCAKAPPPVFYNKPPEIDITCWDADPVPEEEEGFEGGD
Method: as §1, §2, §3, §4, §5, §6, §7, §8, §9

[9] = biological target: T9, proteins of U2OS cell lysate (Homo sapiens, UniProt P49327)
T9 construct: Proteins enriched by c-ponatinib from U2OS cell lysate; endogenous in cells; host or cells: U2OS cell lysate
Method: as §1, §2, §3, §4, §5, §6, §7, §8, §9

[10] = biological target: T10, proteins of U2OS cell lysate (Homo sapiens, UniProt Q16891)
T10 construct: Proteins enriched by c-ponatinib from U2OS cell lysate; endogenous in cells; host or cells: U2OS cell lysate
Method: as §1, §2, §3, §4, §5, §6, §7, §8, §9

[11] = biological target: T11, proteins of U2OS cell lysate (Homo sapiens, UniProt Q9NX63)
T11 construct: Proteins enriched by c-ponatinib from U2OS cell lysate; endogenous in cells; host or cells: U2OS cell lysate
Method: as §1, §2, §3, §4, §5, §6, §7, §8, §9

[12] = biological target: T12, proteins of U2OS cell lysate (Homo sapiens, UniProt P62195)
T12 construct: Proteins enriched by c-ponatinib from U2OS cell lysate; endogenous in cells; host or cells: U2OS cell lysate
Method: as §1, §2, §3, §4, §5, §6, §7, §8, §9

[13] = biological target: T13, proteins of U2OS cell lysate (Homo sapiens, UniProt Q9NVA2)
T13 construct: Proteins enriched by c-ponatinib from U2OS cell lysate; endogenous in cells; host or cells: U2OS cell lysate
T13 sequence (Q9NVA2 whole entry): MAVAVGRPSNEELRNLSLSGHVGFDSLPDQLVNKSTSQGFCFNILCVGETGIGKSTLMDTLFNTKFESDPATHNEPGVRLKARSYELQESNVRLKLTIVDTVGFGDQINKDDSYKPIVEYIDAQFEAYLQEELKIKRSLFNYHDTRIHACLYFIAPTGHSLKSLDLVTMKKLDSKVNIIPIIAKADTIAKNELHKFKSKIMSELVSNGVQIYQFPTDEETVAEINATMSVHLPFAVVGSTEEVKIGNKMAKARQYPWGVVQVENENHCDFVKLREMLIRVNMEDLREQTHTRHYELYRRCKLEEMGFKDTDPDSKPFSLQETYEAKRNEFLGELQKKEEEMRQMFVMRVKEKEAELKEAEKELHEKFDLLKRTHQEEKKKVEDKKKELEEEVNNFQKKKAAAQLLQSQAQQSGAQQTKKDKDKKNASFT
Method: as §1, §2, §3, §4, §5, §6, §7, §8, §9

[14] = biological target: T14, proteins of U2OS cell lysate (Homo sapiens, UniProt Q7RTV0)
T14 construct: Proteins enriched by c-ponatinib from U2OS cell lysate; endogenous in cells; host or cells: U2OS cell lysate
Method: as §1, §2, §3, §4, §5, §6, §7, §8, §9

[15] = biological target: T15, proteins of U2OS cell lysate (Homo sapiens, UniProt P19338)
T15 construct: Proteins enriched by c-ponatinib from U2OS cell lysate; endogenous in cells; host or cells: U2OS cell lysate
T15 sequence (P19338 whole entry): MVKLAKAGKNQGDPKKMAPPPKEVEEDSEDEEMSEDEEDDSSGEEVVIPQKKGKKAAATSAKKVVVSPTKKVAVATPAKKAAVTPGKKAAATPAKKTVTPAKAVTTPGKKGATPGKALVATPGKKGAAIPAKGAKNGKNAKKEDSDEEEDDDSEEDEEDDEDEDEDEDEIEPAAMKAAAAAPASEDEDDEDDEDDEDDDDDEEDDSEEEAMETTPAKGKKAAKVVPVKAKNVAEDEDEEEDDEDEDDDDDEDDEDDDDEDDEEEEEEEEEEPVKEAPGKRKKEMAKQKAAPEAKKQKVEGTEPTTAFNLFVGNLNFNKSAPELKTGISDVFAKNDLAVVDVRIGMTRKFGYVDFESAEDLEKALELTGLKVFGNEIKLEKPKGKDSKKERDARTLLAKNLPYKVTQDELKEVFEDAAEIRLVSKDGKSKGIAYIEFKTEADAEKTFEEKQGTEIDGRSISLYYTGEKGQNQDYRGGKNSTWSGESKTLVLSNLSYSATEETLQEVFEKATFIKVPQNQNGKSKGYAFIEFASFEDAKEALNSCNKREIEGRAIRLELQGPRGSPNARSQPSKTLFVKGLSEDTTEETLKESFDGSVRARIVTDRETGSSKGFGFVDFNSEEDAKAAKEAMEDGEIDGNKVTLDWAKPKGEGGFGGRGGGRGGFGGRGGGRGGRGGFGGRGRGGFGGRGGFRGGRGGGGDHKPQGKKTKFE
Method: as §1, §2, §3, §4, §5, §6, §7, §8, §9

[16] = biological target: T16, proteins of U2OS cell lysate (Homo sapiens, UniProt O15372)
T16 construct: Proteins enriched by c-ponatinib from U2OS cell lysate; endogenous in cells; host or cells: U2OS cell lysate
T16 sequence (O15372 whole entry): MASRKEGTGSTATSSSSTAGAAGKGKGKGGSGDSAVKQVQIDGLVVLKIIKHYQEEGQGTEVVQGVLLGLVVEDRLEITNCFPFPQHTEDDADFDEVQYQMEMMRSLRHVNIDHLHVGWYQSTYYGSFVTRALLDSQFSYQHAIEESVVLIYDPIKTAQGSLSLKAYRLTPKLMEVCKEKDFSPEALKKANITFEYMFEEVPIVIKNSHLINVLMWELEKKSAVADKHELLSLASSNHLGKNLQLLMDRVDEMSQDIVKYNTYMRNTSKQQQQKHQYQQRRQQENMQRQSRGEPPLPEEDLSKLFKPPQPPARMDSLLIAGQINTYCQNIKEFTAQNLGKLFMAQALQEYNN
Method: as §1, §2, §3, §4, §5, §6, §7, §8, §9

[17] = biological target: T17, proteins of U2OS cell lysate (Homo sapiens, UniProt O75396)
T17 construct: Proteins enriched by c-ponatinib from U2OS cell lysate; endogenous in cells; host or cells: U2OS cell lysate
Method: as §1, §2, §3, §4, §5, §6, §7, §8, §9

[18] = biological target: T18, proteins of U2OS cell lysate (Homo sapiens, UniProt Q13347)
T18 construct: Proteins enriched by c-ponatinib from U2OS cell lysate; endogenous in cells; host or cells: U2OS cell lysate
T18 sequence (Q13347 whole entry): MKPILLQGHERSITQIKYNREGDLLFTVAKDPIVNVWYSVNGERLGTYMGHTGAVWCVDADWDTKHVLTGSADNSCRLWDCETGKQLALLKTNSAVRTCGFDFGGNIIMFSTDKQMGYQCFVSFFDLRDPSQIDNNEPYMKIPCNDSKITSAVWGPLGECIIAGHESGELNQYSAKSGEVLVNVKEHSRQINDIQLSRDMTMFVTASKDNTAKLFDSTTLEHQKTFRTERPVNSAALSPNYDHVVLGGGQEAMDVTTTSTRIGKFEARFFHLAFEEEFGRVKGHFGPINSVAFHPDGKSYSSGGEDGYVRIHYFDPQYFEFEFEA
Method: as §1, §2, §3, §4, §5, §6, §7, §8, §9

[19] = biological target: T19, proteins of U2OS cell lysate (Homo sapiens, UniProt P07900)
T19 construct: Proteins enriched by c-ponatinib from U2OS cell lysate; endogenous in cells; host or cells: U2OS cell lysate
Method: as §1, §2, §3, §4, §5, §6, §7, §8, §9

T1 sequence (P13073 23-169): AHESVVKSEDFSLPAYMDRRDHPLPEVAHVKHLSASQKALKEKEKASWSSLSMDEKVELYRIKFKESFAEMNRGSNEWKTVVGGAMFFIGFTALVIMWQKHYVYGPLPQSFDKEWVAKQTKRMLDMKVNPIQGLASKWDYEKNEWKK

Cc1ccc(C(=O)Nc2ccc(CN3CCN(CCCN)CC3)c(C(F)(F)F)c2)cc1C#Cc1cnc2cccnn12 [c-ponatinib, reference compound]
Average LFQ intensity ([1]; captured protein COX4I1, Rank 227): 21.5292 | Average LFQ intensity ([2]; captured protein TPR, Rank 156): 22.5124 | Average LFQ intensity ([3]; captured protein CAPZA1, Rank 200): 21.8548 | Average LFQ intensity ([4]; captured protein RPL22, Rank 221): 21.5804 | Average LFQ intensity ([5]; captured protein SUB1, Rank 126): 22.9694 | Average LFQ intensity ([6]; captured protein TUBB6, Rank 151): 22.6671 | Average LFQ intensity ([7]; captured protein EIF3E, Rank 148): 22.7111 | Average LFQ intensity ([8]; captured protein DBN1, Rank 158): 22.4964 | Average LFQ intensity ([9]; captured protein FASN, Rank 161): 22.4378 | Average LFQ intensity ([10]; captured protein IMMT, Rank 188): 22.0335 | Average LFQ intensity ([11]; captured protein CHCHD3, Rank 154): 22.5984 | Average LFQ intensity ([12]; captured protein PSMC5, Rank 176): 22.2388 | Average LFQ intensity ([13]; captured protein 2011-09-01 (Septin-11), Rank 222): 21.5746 | Average LFQ intensity ([14]; captured protein PHF5A, Rank 194): 21.937 | Average LFQ intensity ([15]; captured protein NCL, Rank 117): 23.1289 | Average LFQ intensity ([16]; captured protein EIF3H;EIF3S3, Rank 114): 23.1902 | Average LFQ intensity ([17]; captured protein SEC22B, Rank 146): 22.7294 | Average LFQ intensity ([18]; captured protein EIF3I, Rank 135): 22.8398 | Average LFQ intensity ([19]; captured protein HSP90AA1, Rank 195): 21.9345

Cc1ccc(C(=O)Nc2ccc(CN3CCN(C)CC3)c(C(F)(F)F)c2)cc1C#Cc1cnc2cccnn12 [PON]
Average LFQ PON_WT ([1]; COX4I1, Cytochrome c oxidase subunit 4 isoform 1, mitochondrial): 21.5292 | Average LFQ PON_WT ([2]; TPR, Nucleoprotein TPR): 22.5124 | Average LFQ PON_WT ([3]; CAPZA1, F-actin-capping protein subunit alpha-1): 21.8548 | Average LFQ PON_WT ([4]; RPL22, 60S ribosomal protein L22): 21.5804 | Average LFQ PON_WT ([5]; SUB1, Activated RNA polymerase II transcriptional coactivator p15): 22.9694 | Average LFQ PON_WT ([6]; TUBB6, Tubulin beta-6 chain): 22.6671 | Average LFQ PON_WT ([7]; EIF3E, Eukaryotic translation initiation factor 3 subunit E): 22.7111 | Average LFQ PON_WT ([8]; DBN1, Drebrin): 22.4964 | Average LFQ PON_WT ([9]; FASN, Fatty acid synthase): 22.4378 | Average LFQ PON_WT ([10]; IMMT, Mitochondrial inner membrane protein): 22.0335 | Average LFQ PON_WT ([11]; CHCHD3, Coiled-coil-helix-coiled-coil-helix domain-containing protein 3, mitochondrial): 22.5984 | Average LFQ PON_WT ([12]; PSMC5, 26S protease regulatory subunit 8): 22.2388 | Average LFQ PON_WT ([13]; SEPT11, Septin-11): 21.5746 | Average LFQ PON_WT ([14]; PHF5A, PHD finger-like domain-containing protein 5A): 21.937 | Average LFQ PON_WT ([15]; NCL, Nucleolin): 23.1289 | Average LFQ PON_WT ([16]; EIF3H;EIF3S3, Eukaryotic translation initiation factor 3 subunit H): 23.1902 | Average LFQ PON_WT ([17]; SEC22B, Vesicle-trafficking protein SEC22b): 22.7294 | Average LFQ PON_WT ([18]; EIF3I, Eukaryotic translation initiation factor 3 subunit I): 22.8398 | Average LFQ PON_WT ([19]; HSP90AA1, Heat shock protein HSP 90-alpha): 21.9345
